From ChEMBL document CHEMBL1133380, “3-Imidazolylmethylaminophenylsulfonyltetrahydroquinolines, a novel series of farnesyltransferase inhibitors” (Bioorg Med Chem Lett, 2000) come the findings set out here.

pIC50: −log10 of the molar value.

This test deals with Protein farnesyltransferase (Homo sapiens, UniProt P49354+P49356). The test is described as follows: Inhibition of Farnesyltransferase. The format is protein-complex assay.
For orientation: pIC50 means the IC50 on a negative log10 scale, so that one unit is a factor of ten. A high value points to a small IC50. As for `CSCC[C@H](NC(=O)[C@@H]1Cc2ccccc2CN1C(=O)[C@@H](NC[C@@H](N)CS)C(C)C)C(=O)O`, the pIC50 was 9.22.

In turn, `N#Cc1cccc(CN(Cc2c[nH]cn2)c2cccc(S(=O)(=O)N3CCCc4ccccc43)c2)c1` had a negative-log IC50 (pIC50) of 6.24. In turn, `CCCCOc1ccc(S(=O)(=O)N2CCCc3ccccc32)cc1N(Cc1cnc[nH]1)Cc1cnc[nH]1` showed a pIC50 of 6.32.

Compound `CSCC[C@H](NC(=O)[C@@H]1Cc2ccccc2CN1C(=O)[C@@H](NCCc1cnc[nH]1)C(C)C)C(=O)O` showed a pIC50 of 9.10. `O=S(=O)(c1cccc(NCc2cnc[nH]2)c1)N1CCCc2ccccc21` had a pIC50 of 4.82. With `O=S(=O)(c1cccc(N(Cc2cnc[nH]2)Cc2cnc[nH]2)c1)N1CCCc2ccccc21`, the pIC50 was 6.89.
